Data: US12077503B2, “Substituted cyclic amides and their use as herbicides” (FMC CORPORATION, priority 2015, dated 2024)

How the values were obtained:
Format in all cases: in vivo
[1] = system: sedge, umbrella (small-flower umbrella sedge, Cyperus difformis); experiment: Test B flooded paddy test; conditions: Cyperus difformis, 250 g ai/ha, Flood; 0 to 100 scale where 0 is no effect and 100 is complete control; read-out: Sedge, Umbrella plant response rating
How it was run: (§1)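 2-leaf plants; pots flooded 3 cm over soil; cpd added to paddy water; depth held; greenhouse 13–15 d; visual rating vs controls, 0 = no effect, 100 = complete control.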

[2] = system: ducksalad (Heteranthera limosa); experiment: Test B flooded paddy test; conditions: Heteranthera limosa, 250 g ai/ha, Flood; 0 to 100 scale where 0 is no effect and 100 is complete control; read-out: Ducksalad plant response rating
How it was run: as §1

[3] = system: barnyardgrass (Echinochloa crus-galli); experiment: Test B flooded paddy test; conditions: Echinochloa crus-galli, 250 g ai/ha, Flood; 0 to 100 scale where 0 is no effect and 100 is complete control; read-out: Barnyardgrass plant response rating
How it was run: as §1

rice (Oryra sativa) = experiment: Test B flooded paddy test; conditions: Oryza sativa, 250 g ai/ha, Flood; 0 to 100 scale where 0 is no effect and 100 is complete control; read-out: Rice plant response rating
How it was run: as §1

[4] = system: pigweed (Amaranthus retroflexus); experiment: Test A preemergence; conditions: Amaranthus retroflexus, pre-emergence, 240 h, 0 to 100 scale where 0 is no effect and 100 is complete control, read-out: Pigweed plant response rating
[5] = system: ryegrass, Italian (Italian ryegrass, Lolium multiflorum); experiment: Test A preemergence; conditions: Lolium multiflorum, pre-emergence, 240 h, 0 to 100 scale where 0 is no effect and 100 is complete control, read-out: Ryegrass, Italian plant response rating
How it was run: (§2)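 Seeded soil received test chemicals as a preemergence directed spray, and seedlings at one to two leaves, 2–10 cm tall, received them postemergence, in a non-phytotoxic, surfactant-containing solvent mixture. Pots were held in a greenhouse for approximately 10 d, then rated for injury from 0, no effect, to 100, complete control.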

Kochia (Kochia scoparia) [6] = experiment: Test A preemergence; conditions: Bassia scoparia, pre-emergence, 240 h, 0 to 100 scale where 0 is no effect and 100 is complete control, read-out: Kochia plant response rating
How it was run: as §2

[7] = system: barnyardgrass (Echinochloa crus-galli); experiment: Test A preemergence; conditions: Echinochloa crus-galli, pre-emergence, 240 h, 0 to 100 scale where 0 is no effect and 100 is complete control, read-out: Barnyardgrass plant response rating
How it was run: as §2

[8] = system: ragweed (common ragweed, Ambrosia elatior); experiment: Test A preemergence; conditions: Ambrosia artemisiifolia, pre-emergence, 240 h, 0 to 100 scale where 0 is no effect and 100 is complete control, read-out: Ragweed plant response rating
How it was run: as §2

[9] = system: giant foxtail (Setaria faberii); experiment: Test A preemergence; conditions: Setaria faberi, pre-emergence, 240 h, 0 to 100 scale where 0 is no effect and 100 is complete control, read-out: Foxtail, Giant plant response rating
How it was run: as §2

corn (Zea mays) = experiment: Test A postemergence; conditions: Zea mays, post-emergence, 240 h
How it was run: as §2

[10] = system: pigweed (Amaranthus retroflexus); experiment: Test A postemergence; conditions: Amaranthus retroflexus, post-emergence, 240 h
How it was run: as §2

[11] = system: ryegrass, Italian (Italian ryegrass, Lolium multiflorum); experiment: Test A postemergence; conditions: Lolium multiflorum, post-emergence, 240 h
How it was run: as §2

[12] = system: Galium (catchweed bedstraw, Galium aparine); experiment: Test A postemergence; conditions: Galium, post-emergence, 240 h
How it was run: as §2

Kochia (Kochia scoparia) [13] = experiment: Test A postemergence; conditions: Bassia scoparia, post-emergence, 240 h
How it was run: as §2

[14] = system: barnyardgrass (Echinochloa crus-galli); experiment: Test A postemergence; conditions: Echinochloa crus-galli, post-emergence, 240 h
How it was run: as §2

[15] = system: wheat (Triticum aestivum); experiment: Test A postemergence; conditions: Triticum aestivum, post-emergence, 240 h
How it was run: as §2

[16] = system: blackgrass (Alopecurus myosuroides); experiment: Test A postemergence; conditions: Alopecurus myosuroides, post-emergence, 240 h
How it was run: as §2

[17] = system: ragweed (common ragweed, Ambrosia elatior); experiment: Test A postemergence; conditions: Ambrosia artemisiifolia, post-emergence, 240 h
How it was run: as §2

[18] = system: giant foxtail (Setaria faberii); experiment: Test A postemergence; conditions: Setaria faberi, post-emergence, 240 h
How it was run: as §2

[19] = 125 g ai/ha, preemergence, approx. 10 d

For `Cc1ccc([C@H]2CN(C)C(=O)[C@@H]2C(=O)Nc2cnccc2C)cc1` [Compound 1070], the pest or weed control at 250 g/ha [1] was 0%, the pest or weed control at 250 g/ha [2] was 80% and the pest or weed control at 250 g/ha [3] was 0%. The pest or weed control at 250 g/ha (rice (Oryra sativa)) was 0%, the pest or weed control at 31 g/ha ([4]; 31 g ai/ha, Preemergence) was 0% and the pest or weed control at 125 g/ha [4, 19] was 0%. It also gave a pest or weed control at 31 g/ha ([5]; 31 g ai/ha, Preemergence) of 0%, a pest or weed control at 125 g/ha [5, 19] of 0% and a pest or weed control at 31 g/ha (Kochia (Kochia scoparia) [6]; 31 g ai/ha, Preemergence) of 0%. The pest or weed control at 125 g/ha (Kochia (Kochia scoparia) [6]; [19]) was 0%, the pest or weed control at 31 g/ha ([7]; 31 g ai/ha, Preemergence) was 0% and the pest or weed control at 125 g/ha [7, 19] was 0%. The pest or weed control at 31 g/ha ([8]; 31 g ai/ha, Preemergence) was 0%, the pest or weed control at 125 g/ha [8, 19] was 0% and the pest or weed control at 31 g/ha ([9]; 31 g ai/ha, Preemergence) was 0%. For the same compound, the pest or weed control at 125 g/ha [9, 19] was 60%, the plant injury at 125 g/ha (corn (Zea mays); 125 g ai/ha, postemergence, visual injury on 0 to 100 scale (0 no effect, 100 complete control), approx. 10 d, read-out: Corn plant response rating) was 0% and the Corn plant response rating (crop injury, 0 = no effect, 100 = complete kill) at 31 g/ha (corn (Zea mays); Postemergence, 31 g ai/ha, visual injury after approx. 10 d, 0 to 100 scale, 0 no effect, 100 complete control) was 0%. For the same compound, the pest or weed control at 125 g/ha ([10]; 125 g ai/ha, postemergence, visual injury on 0 to 100 scale (0 no effect, 100 complete control), approx. 10 d, read-out: Pigweed plant response rating) was 0%, the pest or weed control at 31 g/ha ([10]; Postemergence, 31 g ai/ha, visual injury after approx. 10 d, 0 to 100 scale, 0 no effect, 100 complete control, read-out: Plant response rating, Pigweed) was 0% and the pest or weed control at 125 g/ha ([11]; 125 g ai/ha, postemergence, visual injury on 0 to 100 scale (0 no effect, 100 complete control), approx. 10 d, read-out: Ryegrass, Italian plant response rating) was 0%. The pest or weed control at 31 g/ha ([11]; Postemergence, 31 g ai/ha, visual injury after approx. 10 d, 0 to 100 scale, 0 no effect, 100 complete control, read-out: Plant response rating, Ryegrass, Italian) was 0%, the pest or weed control at 125 g/ha ([12]; 125 g ai/ha, postemergence, visual injury on 0 to 100 scale (0 no effect, 100 complete control), approx. 10 d, read-out: Galium plant response rating) was 0% and the pest or weed control at 31 g/ha ([12]; Postemergence, 31 g ai/ha, visual injury after approx. 10 d, 0 to 100 scale, 0 no effect, 100 complete control, read-out: Plant response rating, Galium) was 0%. For the same compound, the pest or weed control at 125 g/ha (Kochia (Kochia scoparia) [13]; 125 g ai/ha, postemergence, visual injury on 0 to 100 scale (0 no effect, 100 complete control), approx. 10 d, read-out: Kochia plant response rating) was 0%, the pest or weed control at 31 g/ha (Kochia (Kochia scoparia) [13]; Postemergence, 31 g ai/ha, visual injury after approx. 10 d, 0 to 100 scale, 0 no effect, 100 complete control, read-out: Plant response rating, Kochia) was 0% and the pest or weed control at 125 g/ha ([14]; 125 g ai/ha, postemergence, visual injury on 0 to 100 scale (0 no effect, 100 complete control), approx. 10 d, read-out: Barnyardgrass plant response rating) was 0%. The pest or weed control at 31 g/ha ([14]; Postemergence, 31 g ai/ha, visual injury after approx. 10 d, 0 to 100 scale, 0 no effect, 100 complete control, read-out: Plant response rating, Barnyardgrass) was 0%, the plant injury at 125 g/ha ([15]; 125 g ai/ha, postemergence, visual injury on 0 to 100 scale (0 no effect, 100 complete control), approx. 10 d, read-out: Wheat plant response rating) was 0% and the plant injury at 31 g/ha ([15]; Postemergence, 31 g ai/ha, visual injury after approx. 10 d, 0 to 100 scale, 0 no effect, 100 complete control, read-out: Plant response rating, Wheat) was 0%. It also gave a pest or weed control at 125 g/ha ([16]; 125 g ai/ha, postemergence, visual injury on 0 to 100 scale (0 no effect, 100 complete control), approx. 10 d, read-out: Blackgrass plant response rating) of 0%, a pest or weed control at 31 g/ha ([16]; Postemergence, 31 g ai/ha, visual injury after approx. 10 d, 0 to 100 scale, 0 no effect, 100 complete control, read-out: Plant response rating, Blackgrass) of 0% and a pest or weed control at 125 g/ha ([17]; 125 g ai/ha, postemergence, visual injury on 0 to 100 scale (0 no effect, 100 complete control), approx. 10 d, read-out: Ragweed plant response rating) of 0%. The pest or weed control at 31 g/ha ([17]; Postemergence, 31 g ai/ha, visual injury after approx. 10 d, 0 to 100 scale, 0 no effect, 100 complete control, read-out: Plant response rating, Ragweed) was 0%, the pest or weed control at 125 g/ha ([18]; 125 g ai/ha, postemergence, visual injury on 0 to 100 scale (0 no effect, 100 complete control), approx. 10 d, read-out: Foxtail, Giant plant response rating) was 0% and the pest or weed control at 31 g/ha ([18]; Postemergence, 31 g ai/ha, visual injury after approx. 10 d, 0 to 100 scale, 0 no effect, 100 complete control, read-out: Plant response rating, Foxtail, Giant) was 0%.
